Experimental data: patent US20060014717A1, “Therapeutic compositions for use in prophylaxis or treatment of diarrheas” (priority 2002, published 2006)

Columns and labels:
[1] = system: an ETEC and an EPEC strain; conditions: cited from earlier work
H. canis CCUG 33835 = assay: Binding of 35S-labeled Helicobacter species to glycosphingolipids on thin-layer chromatograms; parameters: species or system Helicobacter canis; key: + denotes a significant darkening on the autoradiogram when 2 μg (or 40 μg in the case of the last sample) was applied to TLC plates; − denotes no binding; conditions: 2 μg (40 μg for the glycosphingolipid fraction) on TLC plates
Source text: (§1) Gastric species examined in the present study included, Helicobacter mustelae ferret isolates from the National Collection of Type Cultures (NCTC) and the Culture Collection of the University of Gothenberg (CCUG), NCTC 12198/CCUG 25175 (equivalent strains from different sources tested), CCUG 23950 and CCUG 23951, Helicobacterfelis CCUG 28539 from a cat, in addition, H. pylori strains CCUG 17874, CCUG 17875 and a clinical isolate 119/95 were used. Enterohepatic helicobacters of animal origin were purchased from the CCUG including, Helicobacter canes CCUG 33835, Helicobacter bilis CCUG 38995, Helicobacter hepaticus CCUG 33637, and Helicobacterfennelliae (CCUG 18820).
(§2) Binding of Helicobacter spp. to glycosphingolipids, both acid and non-acidfractions. Glycosphingolipids were isolated by standard procedures (Karlsson, 1987). The identity of the purified glycosphingolipids was confirmed by mass spectrometry (Samuelsson et al., 1990), proton NMR spectroscopy (Koerner et al., 1983) and degradation studies (Stellner et al., 1973; Yang and Hakomori, 1971).
(§3) Mixtures of glycosphingolipids (40 μg/lane) or pure compounds (2 μg/lane) were subsequently separated using thin-layer chromatography (TLC) on glass- or aluminum-backed silica gel 60 HPTLC plates (Merck, Darmstadt, Germany), with chloroform/methanot/water (60:35:8, by volume) as solvent system. Chemical detection was accomplished by anisaldehyde (Waldi, 1962). Helicobacter spp. were subjected to ^35S-labeling (Angstrom et al., 1998) and suspended in PBS (10^8 CFU/ml) with a specific activity of approximately 1 cpm per 100 organisms. Binding of the labeled-bacteria to glycosphingolipids separated by TLC was achieved using a bacterial-overlay technique coupled with autoradiography detection using XAR-5 X-ray films (Eastman Kodak, Rochester, N.Y.) as previously described (Hansson et al., 1985).

[2] = system: H. mustelae CCUG 23950 & 23951; assay: as above; parameters: species or system Helicobacter mustelae; key: + denotes a significant darkening on the autoradiogram when 2 μg (or 40 μg in the case of the last sample) was applied to TLC plates; − denotes no binding; conditions: 2 μg (40 μg for the glycosphingolipid fraction) on TLC plates
Source text: as §1, §2, §3

H. mustelae 25715 = assay: as above; parameters: species or system Helicobacter mustelae; key: + denotes a significant darkening on the autoradiogram when 2 μg (or 40 μg in the case of the last sample) was applied to TLC plates; − denotes no binding; conditions: 2 μg (40 μg for the glycosphingolipid fraction) on TLC plates
Source text: as §1, §2, §3

H. hepaticus CCUG 33637 = assay: as above; parameters: species or system Helicobacter hepaticus; key: + denotes a significant darkening on the autoradiogram when 2 μg (or 40 μg in the case of the last sample) was applied to TLC plates; − denotes no binding; conditions: 2 μg (40 μg for the glycosphingolipid fraction) on TLC plates
Source text: as §1, §2, §3

[3] = system: gastric and enterohepatic Helicobacter spp.; assay: Binding of Helicobacter spp. to glycosphingolipids (statements for several species); conditions: both gastric and enterohepatic Helicobacter spp. tested
Source text: as §1, §2, §3

H. bilis CCUG 38995 = assay: Binding of 35S-labeled Helicobacter species to glycosphingolipids on thin-layer chromatograms; parameters: species or system Helicobacter bilis; key: + denotes a significant darkening on the autoradiogram when 2 μg (or 40 μg in the case of the last sample) was applied to TLC plates; − denotes no binding; conditions: 2 μg (40 μg for the glycosphingolipid fraction) on TLC plates
Source text: as §1, §2, §3

H. pylori CCUG 17875 = assay: as above; parameters: species or system Helicobacter pylori; key: + denotes a significant darkening on the autoradiogram when 2 μg (or 40 μg in the case of the last sample) was applied to TLC plates; − denotes no binding; conditions: 2 μg (40 μg for the glycosphingolipid fraction) on TLC plates
Source text: as §1, §2, §3

H. pylori CCUG 17874 = assay: as above; parameters: species or system Helicobacter pylori; key: + denotes a significant darkening on the autoradiogram when 2 μg (or 40 μg in the case of the last sample) was applied to TLC plates; − denotes no binding; conditions: 2 μg (40 μg for the glycosphingolipid fraction) on TLC plates
Source text: as §1, §2, §3

H. felis CCUG 28539 = assay: as above; parameters: species or system Helicobacter felis; key: + denotes a significant darkening on the autoradiogram when 2 μg (or 40 μg in the case of the last sample) was applied to TLC plates; − denotes no binding; conditions: 2 μg (40 μg for the glycosphingolipid fraction) on TLC plates
Source text: as §1, §2, §3

EPEC strain = conditions: listed in decreasing order of activity; cited from earlier work

CC(=O)N[C@H]1[C@H]([C@H](O)[C@H](O)CO)OC(O)(C(=O)O)C[C@@H]1O (stereo partly drawn) [N-acetylneuraminic acid]
Inhibition of binding of an ETEC and an EPEC strain to Caco-2 cells [1]: negative

Galβ3GalNAcβ4(NeuAcα3)Galβ4Glcβ1Cer [No. 29]
Inhibition of binding of an ETEC and an EPEC strain to Caco-2 cells [1]: inhibiting

Galβ3GlcNAcβ3Galβ4Glcβ1Cer [No. 23]
Binding of glycosphingolipids to H.canis 33835 (H. canis CCUG 33835): + | Binding of glycosphingolipids to H.mustelae 23950 & 23951 [2]: + | Binding of glycosphingolipids to H.mustelae 25715 (H. mustelae 25715): + | Binding of glycosphingolipids to H.hepaticus 33637 (H. hepaticus CCUG 33637): + | Binding of Helicobacter spp. to glycosphingolipid, in words [3]: capable of binding | Binding of glycosphingolipids to H.bilis 38995 (H. bilis CCUG 38995): + | Binding of glycosphingolipids to H.pylori 17875 (H. pylori CCUG 17875): + | Binding of glycosphingolipids to H.pylori 17874 (H. pylori CCUG 17874): + | Binding of glycosphingolipids to H.felis 28539 (H. felis CCUG 28539): +

Galβ4Glcβ1Cer [No. 5]
Binding of glycosphingolipids to H.canis 33835 (H. canis CCUG 33835): + | Binding of glycosphingolipids to H.mustelae 23950 & 23951 [2]: + | Binding of glycosphingolipids to H.mustelae 25715 (H. mustelae 25715): + | Binding of glycosphingolipids to H.hepaticus 33637 (H. hepaticus CCUG 33637): + | Binding of Helicobacter spp. to glycosphingolipid, in words [3]: capable of binding | Binding of glycosphingolipids to H.bilis 38995 (H. bilis CCUG 38995): + | Binding of glycosphingolipids to H.pylori 17875 (H. pylori CCUG 17875): + | Binding of glycosphingolipids to H.pylori 17874 (H. pylori CCUG 17874): + | Binding of glycosphingolipids to H.felis 28539 (H. felis CCUG 28539): +

NeuGcα3Galβ4GlcNAcβ3Galβ4GlcNAcβ3Galβ4Glcβ1Cer [No. 36]
Binding of glycosphingolipids to H.canis 33835 (H. canis CCUG 33835): + | Binding of glycosphingolipids to H.mustelae 23950 & 23951 [2]: + | Binding of glycosphingolipids to H.mustelae 25715 (H. mustelae 25715): + | Binding of glycosphingolipids to H.hepaticus 33637 (H. hepaticus CCUG 33637): + | Binding of glycosphingolipids to H.bilis 38995 (H. bilis CCUG 38995): + | Binding of glycosphingolipids to H.pylori 17875 (H. pylori CCUG 17875): + | Binding of glycosphingolipids to H.pylori 17874 (H. pylori CCUG 17874): + | Binding of glycosphingolipids to H.felis 28539 (H. felis CCUG 28539): +

lactosylceramide
Binding of an EPEC strain to commercial glycolipids (EPEC strain): negative | Inhibition of binding of an ETEC and an EPEC strain to Caco-2 cells [1]: negative
